Results reported in paper PMC9979163, “Discovery and functional characterization of N-(thiazol-2-yl)-benzamide analogs as the first class of selective antagonists of the Zinc-Activated Channel (ZAC)” (Biochemical pharmacology, 2021).

Molecular target: T1, ZAC (Homo sapiens, UniProt Q401N2)
T1 sequence (Q401N2 26-412): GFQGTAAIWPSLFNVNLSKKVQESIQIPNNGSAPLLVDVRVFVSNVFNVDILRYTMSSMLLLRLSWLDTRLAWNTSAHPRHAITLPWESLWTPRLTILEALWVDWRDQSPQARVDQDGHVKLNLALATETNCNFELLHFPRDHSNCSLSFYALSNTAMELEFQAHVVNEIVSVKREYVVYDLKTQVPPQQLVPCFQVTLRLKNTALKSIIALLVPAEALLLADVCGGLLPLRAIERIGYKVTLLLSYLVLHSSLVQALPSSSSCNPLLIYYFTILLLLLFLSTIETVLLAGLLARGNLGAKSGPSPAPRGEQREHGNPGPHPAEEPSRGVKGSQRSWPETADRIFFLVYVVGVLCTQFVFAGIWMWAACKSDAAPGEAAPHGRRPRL
Experiment: TEVC recordings, Zn2+-evoked currents at ZAC expressed in Xenopus oocytes
Format: cell-based
Conditions: 1 mM Zn2+ as agonist, tested at three concentrations (0.3-3-30 μM or 1-10-100 μM)
Description: The cDNAs for the various WT and chimeric CLR subunits were linearized and subsequently transcribed and capped mMessage mMachine T7 RNA transcription kit (Ambion, Waltham, MA). Different amounts of cRNA mixtures were injected for ZAC (9.2–36.8 nL in a concentration of 0.05 μg/μL), […] nAChR (9.2–36.8 nL in a concentration of 0.1 μg/μL of each subunit in a ratio of 1:1), hα1 GlyR (9.2–36.8 nL in a concentration of 0.05 μg/μL), hα1β2γ2s GABAAR (9.2–36.8 nL in a concentration of 0.05 μg/μL of each subunit in a ratio of 1:1:3), m5-HT3AR (9.2–36.8 nL in a concentration of 0.05 μg/μL), m5-HT3A/ZAC (9.2–36.8 nL in a concentration of 0.207 μg/μL), and ZAC/hai-Gly (9.2–36.8 nL in a concentration of 0.206 μg/μL). Oocytes were incubated in a sterile modified Barth’s solution [88 mM NaCl, 1 mM KCl, 15 mM HEPES (pH 7.5), 2.4 mM NaHCO3, 0.41 mM CaCl2, 0.82 mM MgSO4, 0.3 mM Ca(NO3)2, 100 U/ml penicillin and 100 μg/ml strep-tomycin] at 18 °C for 2 days after injection.
On the day of experiment, all compound dilutions were prepared in a saline solution [115 mM NaCl, 2.5 mM KCl, 10 mM MOPS (pH 7.5), 1.8 mM CaCl2, 0.1 mM MgCl2] and pH adjusted to 7.5 (if needed). Oocytes were placed in a recording chamber continuously perfused with this saline solution, and the compounds were applied in the perfusate. Both voltage and current electrodes were agar-plugged with 3 M KCl with a resistance of 0.2–2.0 MΩ. Oocytes were voltage-clamped at −50 mV (unless otherwise stated) by a Gene Clamp 500B amplifier (Axon Instruments, Union City, CA), while current signals were digitized by a Digidata 1320. Currents were recorded using pCLAMP 10 (Molecular Devices, Sunnyvale, CA). The recordings were performed at room temperature.
In all recordings, the compounds or compound combinations were applied in the bath until the peak current decayed to a steady state (up to 30 sec at the most). […] The functional properties of the modulators at the CLRs were determined by pre-application of the modulator to the perfusate 30 sec and followed by co-application of the modulator and the agonist to the perfusate. In all recordings, washes of 1–5 min were executed between the applications to prevent receptor desensitization, the duration of these washes depending on the kinetics of the respective receptors and the “stickyness” of the respective compounds. […] For the selectivity and mode-of-action studies, the agonist concentrations used for different CLRs or chimeric CLRs were in the EC20–EC40 range (verified on the day of experiment), as this enabled us to investigate both for putative positive and negative receptor modulation exerted by TTFB (hα3β4 nAChR, 3 μM (S)-nicotine; m5-HT3AR, 2 μM 5-HT; hα1 GlyR, 100 μM glycine; hα1β2γ2S GABAAR, 30 μM GABA; m5-HT3A/ZAC, 0.3 μM 5-HT; ZAC/hɑ1-Gly, 2 μM Zn^2+).
Data analysis of the results from the TEVC recordings were performed using Clampfit software version 10.5 (Molecular Devices, Crawley, UK) and GraphPad Prism version 7.0c (GraphPad Software, Inc. La Jolla, CA). Data for the test compounds were normalized to either the maximal agonist-evoked current or to an EC20–EC50-mediated response elicited by the agonist on each oocyte (specified in each case). Unless otherwise stated, data for agonist-induced responses in the presence of the antagonists were extracted from the plateau (or steady-state) of the agonist-evoked current. Concentration-response and concentration-inhibition curves were fitted in GraphPad Prism by nonlinear regression using the equation for sigmoidal dose-response with variable slope. I-V relationships were analyzed by fitting the curves with a third order polynomial model. Each data point represents the mean ± S.E.M. value of recordings performed on at least five oocytes from at least two different batches.

Antagonist activity at ZAC in SAR study (in words) | SMILES
further reduced ZAC activity | CC(C)c1csc(NC(=O)c2cccc(Nc3ncccn3)c2)n1 [6m]
inactivity | O=C(Nc1nccs1)c1cc(F)c(F)cc1Cl [6a]
inactivity | CCOC(=O)Cc1csc(NC(=O)c2cc(Cl)cc(Cl)c2)n1 [6g]
inactive | CCOC(=O)c1sc(NC(=O)c2cc(Cl)cc(Cl)c2)nc1C [4j]
inactive | CCOc1ccc(C(=O)Nc2nc(C)c(C(=O)OC)s2)cc1Br [4g]
essentially inactive | CCOC(=O)c1sc(NC(=O)c2cc(OC)c(OC)c(OC)c2)nc1C [4l]
inactive | CCOC(=O)c1sc(NC(=O)c2ccccc2Cl)nc1C [4i]
inactivity | Cc1cnc(NC(=O)c2cc(F)c(F)cc2Cl)s1 [6b]
inactive | COC(=O)c1sc(NC(=O)c2ccncc2)nc1C [4h]
essentially inactive | COC(=O)c1sc(NC(=O)c2ccccc2C)nc1C [4a]
inactivity | CC(=O)c1sc(NC(=O)c2cc(F)c(F)cc2Cl)nc1C [6c]
essentially inactive | COC(=O)c1sc(NC(=O)c2ccc(C)cc2)nc1C [4b]
inactive | COC(=O)c1sc(NC(=O)c2cc([N+](=O)[O-])ccc2Cl)nc1C [4f]
decreased antagonist potency | CN(C)c1cccc(C(=O)Nc2nc(C3CC3)cs2)c1 [6l]
roughly equipotent with 2b | CN(C)c1cccc(C(=O)Nc2nc(C(C)(C)C)cs2)c1 [5f]
considerably weaker ZAC antagonist | CC(C)(C)c1csc(NC(=O)c2c(F)c(F)c(F)c(F)c2F)n1 [5b]
inactive | CCOC(=O)c1sc(NC(=O)c2cccnc2)nc1C [4n]
inactive | CCOC(=O)c1sc(NC(=O)c2cc(Cl)ccc2OC)nc1C [4k]
inactive | CCOC(=O)c1sc(NC(=O)c2ccco2)nc1C [4o]
essentially inactive | COc1cc(C(=O)Nc2nc(C(C)(C)C)cs2)cc(OC)c1OC [5i]
inactive | C=CCN(CC=C)S(=O)(=O)c1ccc(C(=O)Nc2nc(C)c(C(=O)OCC)s2)cc1 [4m]
lower potency as ZAC antagonist than 2b | CC(C)(C)c1csc(NC(=O)c2cc(F)c(F)cc2Cl)n1 [5h]

More lines, now with the values behind:

SMILES | Antagonist activity at ZAC in SAR study (in words)
COC(=O)c1sc(NC(=O)c2cccc(I)c2)nc1C [4c] | did not alter its antagonist activity substantially
CCc1nc(NC(=O)c2cccc(Br)c2)sc1C(=O)OC [3a] | inactive
Cc1csc(NC(=O)c2cccc(Br)c2)n1 [3c] | weak ZAC activity
O=C(Nc1ncc([N+](=O)[O-])s1)c1cccc(Br)c1 [3f] | weaker antagonists
Cc1nc(NC(=O)c2cccc(Br)c2)sc1C [3g] | considerably weaker antagonist
CC(C)(C)c1csc(NC(=O)c2cc(Br)ccc2Cl)n1 [2b] | slightly more potent and efficacious ZAC inhibition than 1
CC(C)(C)c1csc(NC(=O)c2cccc(Br)c2)n1 [3d] | fairly potent
Cc1cnc(NC(=O)c2cc(Br)ccc2Cl)s1 [2a] | inactivity
Cc1ccc(-c2csc(NC(=O)c3cc(Br)ccc3Cl)n2)cc1 [2d] | reduced substantially
CCOC(=O)Cc1csc(NC(=O)c2cc(Br)ccc2Cl)n1 [2c] | slightly more potent and efficacious ZAC inhibition than 1
CC(C)(C)c1nnc(NC(=O)c2cccc(Br)c2)s1 [3k] | essentially eliminated ZAC activity
COc1ccc(Cl)cc1C(=O)Nc1nc(C(C)(C)C)cs1 [5g] | somewhat potent but apparent partial inhibition
COC(=O)c1sc(NC(=O)c2cc(C)cc(C)c2)nc1C [4d] | did not alter its antagonist activity substantially
COC(=O)c1sc(NC(=O)c2cc([N+](=O)[O-])cc([N+](=O)[O-])c2)nc1C [4e] | completely devoid of antagonist activity
CCOC(=O)c1sc(NC(=O)c2cccc(Br)c2)nc1C [3b] | inactive
O=C(Nc1nnc(C2CCCCC2)s1)c1cc(Br)ccc1Cl [2f] | substantial loss of activity
O=C(Nc1nc(-c2ccc(Br)s2)cs1)c1cccc(Br)c1 [3e] | eliminated ZAC activity completely
O=C(Nc1nc2ccccc2s1)c1cc(Br)ccc1Cl [2e] | substantial loss of activity

Same assay, conditions: Zn2+ (1 mM) as agonist, TEVC

Fitted inhibition range, Inhibition (%) | Hill coefficient nH ± S.E.M. | SMILES
78 ± 3% | −0.89 ± 0.06 | COC(=O)c1sc(NC(=O)c2cccc(I)c2)nc1C [4c]
88 ± 3% | −1.2 ± 0.12 | CC(C)(C)c1csc(NC(=O)c2cc(Br)ccc2Cl)n1 [2b]

Same assay, conditions: Zn2+ (1 mM) as agonist, TEVC, steady-state current; read-out: IC50

IC50 | SMILES
~20000 nM | O=C(Nc1ncc([N+](=O)[O-])s1)c1cccc(Br)c1 [3f]

Same assay, conditions: Zn2+ (1 mM) as agonist, TEVC, steady-state current; read-out: pIC50 ± S.E.M. (converted)

IC50 | SMILES
1020 nM | COC(=O)c1sc(NC(=O)c2cccc(I)c2)nc1C [4c]
1320 nM | CC(C)(C)c1csc(NC(=O)c2cc(Br)ccc2Cl)n1 [2b]

Same assay, conditions: Zn2+ (1 mM), full concentration-inhibition curves

Extent of inhibition of Zn2+-induced responses (in words) | SMILES
completely | COC(=O)c1sc(NC(=O)c2cccc(I)c2)nc1C [4c]
completely | CC(C)(C)c1csc(NC(=O)c2cc(Br)ccc2Cl)n1 [2b]
